# Data as given in patent US11104656B2, “Method for purifying and removing color of FDCA” (Nederlandse Organisatie voor …, priority 2017, dated 2021).
# Legend:
# Type in all cases: physicochemical
# [1] = Solubility of FDCA in water at different temperatures; settings: water as solvent, temperatures beyond 130° C.
# Source text: The inventors realized that it is desirable for FDCA crystallization to use superheating for dissolving FDCA. FDCA may show a significant increase in solubility above superheating conditions. […] The byproduct is colored and its formation is therefore undesirable both in view of purity and color.
# [2] = Influence of heating time on color of the precipitate after cooling; settings: 200 mg FDCA in 2 mL H2O, 140-180° C., 5-15 min, prolonged heating
# Method: In another experiment, the influence of heating time on the color of the precipitate after cooling was investigated. A total of nine samples were prepared by mixing 200 mg of FDCA in 2 mL H2O. [table]
# [3] = Influence of heating time on decomposition (FDCA in water at 130° C.); settings: for appearance of solution on heating (decomposition): deionised water
# Method: In a reaction vessel, 60 mg of FDCA was dissolved over time in 3 ml of deionised water at a temperature of 130° C. On heating, around 5 minutes was needed to allow the solid to dissolve. Following this, samples were taken at 12, 15, 18 and 21 minutes. The samples were photographed at these intervals (FIG. 4).
smiles,measurement,setting,value
"O=C(O)c1ccc(C(=O)O)o1 [FDCA, 2,5-furandicarboxylic acid]",solubility of FDCA,[1],increases dramatically
same,by-product formation after heating and cooling,[2],formation of black solid by-products
same,time needed to allow the solid to dissolve,[3]; 60 mg FDCA in 3 ml deionised water,around 5 minutes
same,appearance of solution on heating (decomposition),[3]; after 12 minutes,a light solution is observed
same,appearance of solution on heating (decomposition),[3]; after 15 minutes,some black solid by-products started to form
same,appearance of solution on heating (decomposition),[3]; after 18 minutes,clearly darker brown in color
